Sc1nc2ccccc2[nH]1
solubility (mole fraction)
Settings | 278.15 K | 283.15 K | 288.15 K | 293.15 K | 298.15 K | 303.15 K | 308.15 K | 313.15 K | 318.15 K
in 1,4-dioxane | 0.0141 | 0.0153 | 0.0166 | 0.0181 | 0.0195 | 0.021 | 0.0227 | 0.0246 | 0.0265
in 2-butanone | 0.0103 | 0.011 | 0.0117 | 0.0124 | 0.0133 | 0.0141 | 0.0151 | 0.0162 | 0.0172
in acetone | 0.0121 | 0.0128 | 0.0135 | 0.0143 | 0.0152 | 0.016 | 0.0169 | 0.0179 | 0.0189
in acetonitrile | 0.00102 | 0.00115 | 0.00129 | 0.00146 | 0.00163 | 0.00183 | 0.00205 | 0.00228 | 0.00257
in cyclohexane | 4.36e-06 | 5.51e-06 | 7.05e-06 | 8.99e-06 | 1.16e-05 | 1.49e-05 | 1.88e-05 | 2.27e-05 | 2.81e-05
in ethanol | 0.00532 | 0.00634 | 0.00746 | 0.00868 | 0.00998 | 0.0114 | 0.0126 | 0.0142 | 0.0158
in ethyl acetate | 0.00198 | 0.00236 | 0.00275 | 0.00318 | 0.00366 | 0.00413 | 0.00463 | 0.00518 | 0.00577
in isopropanol | 0.0034 | 0.00435 | 0.00528 | 0.00635 | 0.00755 | 0.0088 | 0.0102 | 0.0116 | 0.0132
in methanol | 0.00625 | 0.0073 | 0.00848 | 0.00964 | 0.0109 | 0.0123 | 0.0138 | 0.0152 | 0.0169
in n-butanol | 0.0041 | 0.0049 | 0.0058 | 0.0069 | 0.00809 | 0.00941 | 0.0109 | 0.0125 | 0.0144
in n-propanol | 0.00484 | 0.00559 | 0.0065 | 0.00759 | 0.00872 | 0.00999 | 0.0114 | 0.0131 | 0.0151
in toluene | 2.01e-05 | 2.73e-05 | 3.51e-05 | 4.35e-05 | 5.3e-05 | 6.38e-05 | 7.53e-05 | 8.87e-05 | 0.000104

Source: BigSolDB 2.1
